Data from ChEMBL document CHEMBL1909577, “Discovery of 3-hydroxy-4-cyano-isoquinolines as novel, potent, and selective inhibitors of human 11β-hydroxydehydrogenase 1 (11β-HSD1)” (Bioorg Med Chem Lett, 2011).
pIC50: −log10 of the molar value. Values after ≈ are worked out from the molar mass of the structure shown.

What was measured:
[1] = molecular target: T1, 11-beta-hydroxysteroid dehydrogenase 1 (Mus musculus, UniProt P50172); test: Inhibition of mouse 11beta-HSD1
Liver = conditions: mouse, microsomes, 10 min, 300 µM
Description: Metabolic stability of the compound in mouse liver microsomes assessed as stability rate per mg of protein at 300 uM after 10 mins by LC-MS/MS analysis in presence of NADPH

Liver microsomes [2] = conditions: rat, 10 min, 300 µM
Description: Metabolic stability of the compound in rat liver microsomes assessed as stability rate per mg of protein at 300 uM after 10 mins by LC-MS/MS analysis in presence of NADPH

Liver microsomes [3] = conditions: human, 10 min, 300 µM
Description: Metabolic stability of the compound in human liver microsomes assessed as stability rate per mg of protein at 300 uM after 10 mins by LC-MS/MS analysis in presence of NADPH

[4] = Aqueous solubility of the compound; type: physicochemical
[5] = molecular target: T2, 11-beta-hydroxysteroid dehydrogenase type 2 (Homo sapiens, UniProt P80365); test: Inhibition of 11beta-HSD2
T2 sequence (P80365 whole entry): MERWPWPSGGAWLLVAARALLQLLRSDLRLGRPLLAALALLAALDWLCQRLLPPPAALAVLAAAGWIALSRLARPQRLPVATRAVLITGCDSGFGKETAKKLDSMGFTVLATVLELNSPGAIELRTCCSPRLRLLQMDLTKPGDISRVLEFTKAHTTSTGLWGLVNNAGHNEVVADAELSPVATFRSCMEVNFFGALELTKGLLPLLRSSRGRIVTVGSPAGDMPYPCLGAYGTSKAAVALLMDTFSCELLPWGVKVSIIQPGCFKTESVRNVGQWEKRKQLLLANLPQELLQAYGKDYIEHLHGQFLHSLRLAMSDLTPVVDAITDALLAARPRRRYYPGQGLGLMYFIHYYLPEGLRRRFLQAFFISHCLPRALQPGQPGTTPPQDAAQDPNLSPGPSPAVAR

[6] = molecular target: T3, 11-beta-hydroxysteroid dehydrogenase 1 (Homo sapiens, UniProt P28845); test: Inhibition of human 11beta-HSD1 expressed in HEK293 cells assessed as conversion of [3H]-cortisone to [3H]-cortisol by scintillation plate reader; type: cell-based
[7] = system: UDP-glucuronosyltransferase (Mus musculus); test: in vitro; conditions: human, liver microsomes
[8] = AUC (0 to 8 hrs) in Balb/C mouse at 10 umol/kg, po; type: ADME, organism-based; parameters: time < 8 hr, dose 10 umol/kg, route oral; conditions: plasma
[9] = Cmax in Balb/C mouse at 10 umol/kg, po; type: ADME, organism-based; parameters: dose 10 umol/kg, route oral; conditions: in vivo
[10] = molecular target: T1, 11-beta-hydroxysteroid dehydrogenase 1; test: Inhibition of 11beta-HSD1 in mouse 3T3L1 cells; type: cell-based, 3T3-L1
[11] = Tmax in Balb/C mouse at 10 umol/kg, po; type: ADME, organism-based; conditions: in vivo
[12] = Inhibition of cynomolgus monkey 11beta-HSD1; parameters: species or system Macaca fascicularis
11β-HSD1 (Mus musculus) = conditions: Homo sapiens
[13] = molecular target: T3, 11-beta-hydroxysteroid dehydrogenase 1; test: Inhibition of 11beta-HSD1 in human HEK cells; type: cell-based, HEK293

T1 sequence (P50172 whole entry): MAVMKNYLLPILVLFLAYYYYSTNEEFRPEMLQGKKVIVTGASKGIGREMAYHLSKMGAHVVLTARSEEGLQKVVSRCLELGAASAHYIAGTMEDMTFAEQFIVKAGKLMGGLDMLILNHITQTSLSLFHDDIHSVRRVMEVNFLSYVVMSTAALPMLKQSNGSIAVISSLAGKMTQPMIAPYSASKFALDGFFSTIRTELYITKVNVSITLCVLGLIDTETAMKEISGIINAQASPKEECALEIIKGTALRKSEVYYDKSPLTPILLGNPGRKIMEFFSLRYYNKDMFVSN
T3 sequence (P28845 whole entry): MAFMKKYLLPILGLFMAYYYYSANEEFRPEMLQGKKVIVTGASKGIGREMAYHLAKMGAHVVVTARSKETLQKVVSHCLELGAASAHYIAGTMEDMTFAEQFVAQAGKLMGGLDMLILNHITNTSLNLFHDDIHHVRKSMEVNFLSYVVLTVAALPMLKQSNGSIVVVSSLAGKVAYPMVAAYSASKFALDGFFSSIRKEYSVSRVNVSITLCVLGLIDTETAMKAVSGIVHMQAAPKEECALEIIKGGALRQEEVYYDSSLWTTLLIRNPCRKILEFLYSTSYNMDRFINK

SMILES	pIC50 [1]	Stability (Liver)	Stability (Liver microsomes [2])	Stability (Liver microsomes [3])	solubility [4] [µg/mL]	further results
N#Cc1c(O)nc(SCc2ccccc2-c2ccccc2)c2c1CCCC2	6.84	–	–	–	–	–
N#Cc1ncccc1CSc1nc(O)c(C#N)c2ccc(F)cc12	7.62	0.02 nmol/min	0.02 nmol/min	0 nmol/min	3 (≈ 8.92 µM)	–
N#Cc1c(O)nc(SCc2ccccc2)c2c1CCCC2	7.80	–	–	–	–	–
N#Cc1ccc(F)c(CSc2nc(O)c(C#N)c3c2CCCC3)c1	8.05	0.12 nmol/min	Unstable	0.03 nmol/min	–	–
N#Cc1ccccc1CSc1nc(O)c(C#N)c2c1CCCC2	8.22	0.23 nmol/min	0.25 nmol/min	0.15 nmol/min	7 (≈ 21.8 µM)	–
Oc1cc2c(c(SCc3ccccc3Cl)n1)CCCC2	5.03	0.3 nmol/min	0.3 nmol/min	0.27 nmol/min	–	–
N#Cc1c2c(c(-c3ccccc3)[nH]c1=O)CCCC2	5.36	–	–	–	–	–
N#Cc1c(O)nc(SCC2CCC2)c2c1CCCC2	7.48	0.16 nmol/min	0.24 nmol/min	0 nmol/min	–	–
N#Cc1c(O)nc(SCc2ccccc2)c2c1-c1ccccc1CC2	7.30	0 nmol/min	0.07 nmol/min	0.04 nmol/min	–	pIC50 [5]: 6.41; pIC50 [6]: 8.30
N#Cc1c(O)nc(Sc2ccccc2Cl)c2c1CCCC2	7.02	0.17 nmol/min	0.15 nmol/min	0.07 nmol/min	1 (≈ 3.16 µM)	–
N#Cc1c(O)nc(S(=O)(=O)Cc2ccccc2Cl)c2c1CCCC2	6.57	0.12 nmol/min	0.14 nmol/min	0.07 nmol/min	–	–
N#Cc1c2c(c(SCc3c(Cl)cccc3Cl)[nH]c1=O)CCCC2	8.52	0 nmol/min	Unstable	0 nmol/min	1 (≈ 2.74 µM)	–
N#Cc1ncccc1CSc1nc(O)c(C#N)c2c1COCC2	6.98	0.01 nmol/min	0 nmol/min	0 nmol/min	238 (≈ 734 µM)	half-life [7]: 0.05 h; AUC(0-t) at 8 h [8]: 2.9 µM·h; Cmax [9]: 500 nM; pIC50 [10]: 5.40; Tmax [11]: 4 h
N#Cc1c(O)nc(OCc2ccccc2Cl)c2c1CCCC2	8.22	Unstable	Unstable	Unstable	1 (≈ 3.18 µM)	–
N#Cc1ccc(-c2c(O)nc(SCc3ccccc3Cl)c3c2CCCC3)cc1	5.42	0.18 nmol/min	0.3 nmol/min	0.19 nmol/min	1 (≈ 2.46 µM)	–
N#Cc1c(O)nc(SCc2ccc(Cl)cc2)c2c1CCCC2	7.60	0.3 nmol/min	0.3 nmol/min	0.09 nmol/min	1 (≈ 3.02 µM)	–
N#Cc1c(O)nc(SCc2ccccc2Cl)c2cccc(F)c12	8.15	0.08 nmol/min	0.13 nmol/min	0.24 nmol/min	–	–

SMILES	pIC50 [1]	Stability (Liver)	Stability (Liver microsomes [2])	Stability (Liver microsomes [3])	solubility [4] [µg/mL]	further results
N#Cc1ccc2c(C#N)c(O)nc(SCc3ccccc3Cl)c2c1	7.21	0.05 nmol/min	0.04 nmol/min	0.25 nmol/min	8 (≈ 22.7 µM)	–
N#Cc1ncccc1CSc1nc(O)c(C#N)c2c1CCCC2	8.00	0.05 nmol/min	0.05 nmol/min	0.04 nmol/min	38 (≈ 118 µM)	–
N#Cc1c(=O)[nH]c(SCc2ccccc2Cl)c2c(F)cccc12	8.00	0.08 nmol/min	0.05 nmol/min	0.12 nmol/min	–	–
N#Cc1c(O)nc(SCc2ccccc2Cl)c2ccccc12	7.72	0.2 nmol/min	0.23 nmol/min	0.17 nmol/min	1 (≈ 3.06 µM)	–
N#Cc1c(O)nc(SCc2ccccc2Cl)nc1-c1ccccc1	7.24	–	–	–	–	pIC50 [12]: 7.28; half-life [7]: > 3.33 h; AUC(0-t) at 8 h [8]: 37 µM·h; pIC50 (11β-HSD1 (Mus musculus)): 7.24; pIC50 [13]: 5.96; Cmax [9]: 7100 nM; pIC50 [10]: 5.54; Tmax [11]: 1 h; pIC50 [6]: 7.57
N#Cc1c(O)nc(SCc2ccccc2Cl)c2c1CCOC2	7.68	0.07 nmol/min	0.04 nmol/min	0.12 nmol/min	8 (≈ 24 µM)	–
N#Cc1c(=O)[nH]c(SCc2ccccc2Cl)c2ccc(F)cc12	7.85	0.1 nmol/min	0.05 nmol/min	0.12 nmol/min	–	–
N#Cc1c(O)nc(SCCc2ccccc2Cl)c2c1CCCC2	8.22	0.27 nmol/min	0.24 nmol/min	0.18 nmol/min	1 (≈ 2.9 µM)	–
N#Cc1c(O)nc(SCc2ccccc2Cl)c2cc(F)ccc12	8.15	0 nmol/min	0.04 nmol/min	0.09 nmol/min	1 (≈ 2.9 µM)	AUC(0-t) at 8 h [8]: 15 µM·h; Cmax [9]: 2900 nM; pIC50 [10]: 5.65; Tmax [11]: 4 h
N#Cc1c(=O)[nH]c(OCc2ccccc2Cl)c2cc(F)ccc12	7.68	0.02 nmol/min	0.04 nmol/min	0.05 nmol/min	2 (≈ 6.08 µM)	AUC(0-t) at 8 h [8]: 12 µM·h; Cmax [9]: 2300 nM; pIC50 [10]: 5.67; Tmax [11]: 4 h
CS(=O)(=O)c1ccccc1CSc1nc(O)c(C#N)c2c1CCCC2	8.00	0.11 nmol/min	0.19 nmol/min	0 nmol/min	32 (≈ 85.5 µM)	–
N#Cc1c(O)nc(SCc2ccccc2Cl)c2c1CCN(Cc1ccccc1)C2	5.36	0.04 nmol/min	0 nmol/min	0.08 nmol/min	–	–
Oc1nc(SCc2ccccc2Cl)c2c(c1Br)CCCC2	5.64	–	–	–	–	–
N#Cc1c(O)nc(SCc2ccccc2Cl)c2c1CCCC2	–	0.17 nmol/min	0.16 nmol/min	0.09 nmol/min	6 (≈ 18.1 µM)	pIC50 [12]: 9.00; half-life [7]: < 0.0167 h; AUC(0-t) at 8 h [8]: 0.2 µM·h; Cmax [9]: 30 nM; Tmax [11]: 1 h
N#Cc1c(O)nc(SCc2cccc(Cl)c2)c2c1CCCC2	7.41	–	–	–	1 (≈ 3.02 µM)	–
COc1ccccc1CSc1nc(O)c(C#N)c2c1CCCC2	8.05	–	–	–	–	–
